Entries after “also recorded” stand apart in the source; their conditions may differ. Read-outs that look alike come from different tables or passages of the source.
Columns and labels:
[1] = test system: ∆K280 tauRD-DsRed SH-SY5Y cells; experiment: High content analysis of neurite outgrowth in ΔK280 tauRD-DsRed cells; type: cell-based, Human; conditions: 10 μM
[2] = Mouse pharmacokinetics study and brain/plasma ratio; type: in vivo, Male Crl:CD-1 (ICR) mice; conditions: for half-life: read-out: t1/2 (elimination half-life) (converted); for AUC(0-inf): iv, 5 mg/kg
Method: Male Crl:CD-1 (ICR) mice (8 weeks old) weighing 25–30 g were housed in cages with ad libitum access to food and drinking water on a 12 : 12 h light-dark cycle. All animal experiments were performed in accordance with the guidelines approved by the Rosetta Pharmamate Institutional Animal Care and Use Committee (IACUC Approval No: AF20015). Mice were randomly divided into 7 subgroups (6 time points and 1 vehicle control; n = 3 per subgroup). LM-021 (in 5% DMSO and 19% hydroxypropyl-β-cyclodextrin) was administered intravenously (IV) at 5 mg/kg dose in volume of 10 ml/kg. Mice were euthanized in a CO2 chamber at 0.25, 0.5, 1, 2, 4, or 8 h postdose. Whole blood was collected via facial veins in heparin-coated polypropylene tubes, and plasma was obtained by centrifugation (1000 × g for 15 min at 4°C) within 60 min of collection. After cerebral vasculature perfusion through the left ventricle with normal saline for 5 min, the whole brain was quickly excised and weighed. Plasma and brain samples were rapidly frozen and stored at −70°C until analysis (see supplementary materials).
Pharmacokinetic (PK) parameters, including plasma concentration following IV dose (C0), elimination half-life (T1/2), mean residence time (MRT), and area under the concentration- (AUC-) time curve from time 0 extrapolated to infinity (AUC(0-∞)), were estimated using noncompartmental pharmacokinetic parameter analysis with Phoenix WinNonlin software (version 8.2, Pharsight Corporation, Mountain View, CA, USA). In addition, the ratio of brain/plasma was calculated from the area under the curve for brain and plasma concentrations.
Supplementary Description
Preparation and analysis of mouse plasma and brain homogenate samples. A solvent-based protein precipitation procedure was used for analyzing plasma and brain homogenate samples. A 20-μl aliquot of each plasma sample was mixed with 60 μl of acetonitrile. For brain samples, collected brains were homogenized in 3 volumes of methanol, and then 50 μl of brain homogenate was mixed with 50 μl of acetonitrile.
After vortexing and centrifugation (20,000 × g for 5 min), the extracted supernatants were collected. Liquid chromatography – tandem mass spectrometry (LC-MS/MS) analyses was performed using an Agilent 1200 (Agilent Technologies, Palo Alto, CA, USA) coupled to a QTrap 5500 triple-quadrupole mass spectrometer (AB SCIEX, Foster City, CA, USA). Chromatographic separation was performed on an Eclipse Plus C18 column (3.5 µm; 4.6 × 50 mm; Agilent Technologies) with the mobile phase performed at a constant flow rate of 1.0 ml/min using a binary solvent system: solvent A, 5 mM ammonium acetate; solvent B, acetonitrile. The transition (precursor ion to daughter ion) monitored was m/z 336.2 → 321.0 for LM-021. Multiple reaction monitoring (MRM) data were acquired, and the chromatograms were integrated using Analyst 1.6.3 software (Applied Biosystems). A weighted (1/x) linear regression was used to generate the calibration curves from standards and to calculate the sample […]
concentrations. […]

physchem = type: physicochemical; conditions: aqueous buffer
Method: The coumarin-chalcone derivatives (E)-4-hydroxy-3-(3-(p-tolyl)acryloyl)-2H-chromen-2-one (LM-016), (E)-3-(3-(4-(dimethylamino)phenyl)acryloyl)-4-hydroxy-2H-chromen-2-one (LM-021), and (E)-3-(3-(furan-2-yl)acryloyl)-4-hydroxy-2H-chromen-2-one (LM-022) were synthesized in our laboratory as previously described and examined by using NMR spectroscopy. The LM-016, LM-021, and LM-022 stayed soluble in cell culture medium at concentrations up to 100 μM.

[3] = Crl:CD-1 (ICR), mouse, plasma, ICR male mice, IV 5 mg/kg

Question: With CN(C)c1ccc(/C=C/C(=O)c2c(O)c3ccccc3oc2=O)cc1 [LM-021, (E)-3-(3-(4-(dimethylamino)phenyl)acryloyl)-4-hydroxy-2H-chromen-2-one] as the compound, how does the “Neurite length and branches” value [1] read?
Answer: successfully ameliorated; also recorded: ameliorated the defects

Question: And the half-life ([2]; Crl:CD-1 (ICR), mouse, brain, ICR male mice, IV 5 mg/kg)?
Answer: 2.17 ± 0.67 h

Question: And the C0 [2, 3]?
Answer: 20400 ± 9480 ng/mL

Question: And the MRT [2, 3]?
Answer: 3.54 ± 0.93 h

Question: What about the clearance [2, 3] of the same compound?
Answer: 1.85 ± 0.12 mL/min/kg

Question: And the Vd ([2]; Crl:CD-1 (ICR), mouse, plasma, ICR male mice, IV 5 mg/kg, read-out: Vss)?
Answer: 0.39 ± 0.08 L/kg

Question: What about the half-life [2, 3] of the same compound?
Answer: 2.54 ± 0.79 h

Question: What about the Brain/plasma ratio ([2]; calculated by the AUC(0-∞) ratios, ICR male mice, IV 5 mg/kg) of the same compound?
Answer: 0.053

Question: What about the Kp ([2]; male, Crl:CD-1 (ICR), mouse, brain and plasma, mice, IV 5 mg/kg) of the same compound?
Answer: 0.053

Question: And the AUC(0-inf) ([2]; male, Crl:CD-1 (ICR), mouse, brain, brain (tissue density assumed 1 g/ml), ICR male mice, IV 5 mg/kg, read-out: AUC(0-∞))?
Answer: 2380 ± 34 ng·h/mL

Question: What about the AUC(0-inf) ([2]; male, Crl:CD-1 (ICR), mouse, brain, brain, mice, intravenous bolus 5 mg/kg, read-out: Systemic exposure (AUC0-∞)) of the same compound?
Answer: 2380 ± 30 ng·h/mL

Question: What about the AUC(0-inf) ([2]; male, Crl:CD-1 (ICR), mouse, plasma, plasma, ICR male mice, IV 5 mg/kg, read-out: AUC(0-∞)) of the same compound?
Answer: 45300 ± 2830 ng·h/mL

Question: And the AUC(0-inf) ([2]; male, Crl:CD-1 (ICR), mouse, plasma, plasma, mice, intravenous bolus 5 mg/kg, read-out: Systemic exposure (AUC0-∞))?
Answer: 45300 ± 2830 ng·h/mL

Question: What about the “Plasma clearance as share of cardiac output blood flow of mice (400 ml/min/kg)” value ([2]; mice, IV 5 mg/kg) of the same compound?
Answer: about 0.5%

Question: What about the solubility (physchem) of the same compound?
Answer: ≥ 100 µM

Source: paper PMC8605905 (Oxidative Medicine and Cellular Longevity, 2021)
